{
  "source": "paper PMC6361973",
  "about": "“The NOP-1 peptide derived from the central regulator of ethylene signaling EIN2 delays floral senescence in cut flowers” (Scientific Reports, 2019)",
  "molecules": {"B1": {"name": "AtEIN2^479-1294 (domain or fragment)", "chain": "NALSYPSVQEEEIERTETRRNEDESIVRLESRVKDQLDTTSVTSSVYDLPENILMTDQEIRSSPPEERELDVKYSTSQVSSLKEDSDVKEQSVLQSTVVNEVSDKDLIVETKMAKIEPMSPVEKIVSMENNSKFIEKDVEGVSWETEEATKAAPTSNFTVGSDGPPSFRSLSGEGGSGTGSLSRLQGLGRAARRHLSAILDEFWGHLYDFHGQLVAEARAKKLDQLFGTDQKSASSMKADSFGKDISSGYCMSPTAKGMDSQMTSSLYDSLKQQRTPGSIDSLYGLQRGSSPSPLVNRMQMLGAYGNTTNNNNAYELSERRYSSLRAPSSSEGWEHQQPATVHGYQMKSYVDNLAKERLEALQSRGEIPTSRSMALGTLSYTQQLALALKQKSQNGLTPGPAPGFENFAGSRSISRQSERSYYGVPSSGNTDTVGAAVANEKKYSSMPDISGLSMSARNMHLPNNKSGYWDPSSGGGGYGASYGRLSNESSLYSNLGSRVGVPSTYDDISQSRGGYRDAYSLPQSATTGTGSLWSRQPFEQFGVAERNGAVGEELRNRSNPINIDNNASSNVDAEAKLLQSFRHCILKLIKLEGSEWLFGQSDGVDEELIDRVAAREKFIYEAEAREINQVGHMGEPLISSVPNCGDGCVWRADLIVSFGVWCIHRVLDLSLMESRPELWGKYTYVLNRLQGVIDPAFSKLRTPMTPCFCLQIPASHQRASPTSANGMLPPAAKPAKGKCTTAVTLLDLIKDVEMAISCRKGRTGTAAGDVAFPKGKENLASVLKRYKRRLSNKPVGMNQDGPGSRKNVTAYGSLG"}},
  "key": {"[1]": {"system": "flower senescence", "details": "cited from earlier work; for prevention of the effects of exogenous ethylene on flower senescence: during transport and storage"}, "[2]": {"target": "Dianthus caryophyllus ethylene receptor DcETR1 (Dianthus caryophyllus)", "sequence (Q9M7M1 other isoform, or with tags, fused parts or gaps)": "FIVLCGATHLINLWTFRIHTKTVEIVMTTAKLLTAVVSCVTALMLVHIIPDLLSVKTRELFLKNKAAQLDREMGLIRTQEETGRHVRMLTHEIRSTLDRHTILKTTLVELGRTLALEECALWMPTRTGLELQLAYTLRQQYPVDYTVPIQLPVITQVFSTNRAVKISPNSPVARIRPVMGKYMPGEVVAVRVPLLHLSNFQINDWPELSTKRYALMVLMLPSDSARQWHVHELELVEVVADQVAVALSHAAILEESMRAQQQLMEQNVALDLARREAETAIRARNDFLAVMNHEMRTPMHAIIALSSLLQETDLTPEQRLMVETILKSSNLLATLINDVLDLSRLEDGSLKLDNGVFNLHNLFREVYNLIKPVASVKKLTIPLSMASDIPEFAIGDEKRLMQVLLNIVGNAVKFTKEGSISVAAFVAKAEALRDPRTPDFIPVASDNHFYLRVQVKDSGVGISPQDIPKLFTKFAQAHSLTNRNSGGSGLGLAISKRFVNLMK", "test": "MST; NOP-1 unlabelled, titrated from 100 µM to 3 nM in 100 mM potassium phosphate buffer, 300 mM NaCl, 0.015% FosCholine-16, to 50 nM Alexa488-labelled DcETR1; Monolith NT.115, 50% MST power; triplicates"}, "[3]": {"system": "ethylene biosynthesis", "details": "cited from earlier work", "text": "Consequently, a number of commercial products based o ..."}, "[4]": {"system": "cut carnations (Dianthus caryophyllus)", "test": "Senescence / vase life of cut carnations", "assay_type": "in vivo", "text": "To clarify whether NOP-1 also has the potential to serve as an inhibitor of senescence in cut flowers, we applied the peptide on cut carnations (Dianthus caryophyllus) and analyzed the effect on floral senescence in this model ethylene response system[9],[13],[17],[30]. In analogy to treatment with the chemical senescence inhibitor STS containing silver ions as active ingredient which target plant ethylene receptors[31] the peptide was directly supplied to the vase water. Senescence was monitored visually throughout the experiment and quantified by changes observed in petal size and/or color (Fig. 1A,B). […] To further substantiate the effect of the peptide biological on floral senescence observed with the carnation model system, we used roses as another species of highly ethylene sensitive ornamental plants. […] The untreated controls completely ended their vase life on day 9 due to these morphological changes.\nFigure 1 Effect of small molecule inhibitors of ethylene signaling on flower senescence of cut carnations. (A) Visual images of carnation cut flowers treated with senescence inhibitor silver nitrate or peptide NOP-1. Representative photos of carnation petals treated with 1 mM silver nitrate or 0.5 mM NOP-1 on DAT 0, 3, 6, 9, 12 and 15. […] (B) Quantitative analysis of flower size (left) and petal color change (right) of carnation flowers after treatment with silver salt, NOP-1 peptide or buffer-only. […]\nCut flowers of carnations (Dianthus caryophyllus) and rose (Rosa hybrida), graded for marketable quality, were obtained from a local flower producer. […] Progression of senescence was recorded photographically for a period of 15 days. […] Changes in petal size and color were quantified using ImageJ (32 bit v1.51t.). Relative discoloration of petals was quantified by drawing multiple lines across each flower (petals only) and calculating the average values for red (R), green (G) and blue (B). […] Relative size of flowers was quantified using a macro that specifically recognizes the flower (petals + sepals) but not the flower stem with flower size in pixel² as the output. […]"}, "[5]": {"system": "cut roses (Rosa hybrida)", "test": "Senescence / vase life of cut roses", "assay_type": "in vivo", "details": "1 mM silver nitrate or 0.5 mM NOP-1 in vase water; untreated controls ended vase life on day 9; six flowers per treatment", "text": "To clarify whether NOP-1 also has the potential to serve as an inhibitor of senescence in cut flowers, we applied the peptide on cut carnations (Dianthus caryophyllus) and analyzed the effect on floral senescence in this model ethylene response system[9],[13],[17],[30]. In analogy to treatment with the chemical senescence inhibitor STS containing silver ions as active ingredient which target plant ethylene receptors[31] the peptide was directly supplied to the vase water. Senescence was monitored visually throughout the experiment and quantified by changes observed in petal size and/or color (Fig. 1A,B). […]\nFigure 2 Effect of small molecule inhibitors of ethylene signaling on flower senescence of cut roses. […] (B) Quantitative analysis of color change in petals after treatment with silver salt, NOP-1 peptide or buffer-only. […]\nCut flowers of carnations (Dianthus caryophyllus) and rose (Rosa hybrida), graded for marketable quality, were obtained from a local flower producer. […] Progression of senescence was recorded photographically for a period of 15 days. […] Changes in petal size and color were quantified using ImageJ (32 bit v1.51t.). Relative discoloration of petals was quantified by drawing multiple lines across each flower (petals only) and calculating the average values for red (R), green (G) and blue (B). […]"}, "[6]": {"system": "carnation ethylene receptor DcETR1", "test": "Microscale thermophoresis binding to carnation ethylene receptor DcETR1", "parameters": "species or system Dianthus caryophyllus", "details": "MST; denatured using 2% (w/v) SDS and 40 mM DTT in the assay buffer; triplicates", "text": "To elucidate the mode of action of NOP-1 on flower senescence and to determine whether the peptide biological works by the same molecular mechanism as determined for NOP-1 controlled ripening delay, we initiated interaction studies of the carnation ethylene receptor DcETR1, the central regulator of the ethylene signaling cascade EIN2 and the NOP-1 peptide. To this end, DcETR1 was cloned in E. coli, expressed and purified according to protocols established in our lab[32] for ethylene receptors from Arabidopsis thaliana, Physcomitrella patens, tomato and apple (Supplementary Fig. S1). […] To determine binding affinity and dissociation constants of the purified recombinant proteins and the NOP-1 peptide we used microscale thermophoresis. […] Consequently, targeting this interaction by small-molecule modulators has the potential to shut down ethylene signaling and related plant responses. Therefore, we tested binding of the ripening delaying peptide NOP-1 identified in previous studies to target the ETR1-EIN2 complex with our purified carnation receptor DcETR1. […] The precise interaction site of NOP-1 at the Arabidopsis ETR1 receptor was recently resolved in our lab by molecular and computational studies. […]"}, "[7]": {"target": "Dianthus caryophyllus ethylene receptor DcETR1 (Dianthus caryophyllus)", "test": "MST; AtEIN2^479-1294 unlabelled, titrated from 1457.5 nM to 0.7 nM in 50 mM potassium phosphate (pH 7.8), 300 mM NaCl, 0.015% FosCholine-16, to 50 nM Alexa488-labelled DcETR1; Monolith NT.115, 60% MST power; triplicates"}, "[8]": {"details": "literature, reference not given"}},
  "data": [
    {"molecule": "CC1=CC1", "note": "[1-MCP, 1-methylcyclopropene]", "values": [
      {"measurement": "inhibition of ethylene action at 0 °C", "setting": "[1]; 0 °C", "value": "almost no inhibition"},
      {"measurement": "inhibition of ethylene action at 20 °C", "setting": "[1]; 20 °C", "value": "complete inhibition"},
      {"measurement": "delay of flower senescence on daily application", "setting": "[1]; applied on a daily basis, gaseous", "value": "significantly delayed flower senescence"},
      {"measurement": "effect of repetitive treatments on vase life and floral senescence of cut flowers", "setting": "[1]; repetitive treatments with the gaseous inhibitor", "value": "marked increase in vase life and efficiently blocked floral senescence of cut flower"},
      {"measurement": "duration of senescence control compared with silver ions", "setting": "[1]; single treatment, literature, reference not given", "value": "does not control senescence for as long as silver ions"},
      {"measurement": "efficiency as ethylene action inhibitor", "setting": "[1]; very small concentrations", "value": "highly efficient at very small concentrations"}
    ]},
    {"molecule": "NOP-1 peptide", "values": [
      {"measurement": "Kd", "setting": "[2]", "value": 3490, "unit": "nM"}
    ]},
    {"molecule": "NCCO/C=C/[C@H](N)C(=O)O", "note": "[AVG, amino-ethoxyvinyl glycine]", "values": [
      {"measurement": "blocking of ethylene production that accompanies senescence", "setting": "[3]", "value": "effective in blocking ethylene production"},
      {"measurement": "prevention of the effects of exogenous ethylene on flower senescence", "setting": "[1]; [8]", "value": "ineffective"}
    ]},
    {"molecule": "O=[N+]([O-])[O-].[Ag+]", "note": "[silver salt, silver nitrate]", "values": [
      {"measurement": "efficacy compared with the other treatment, cut carnations (in words)", "setting": "[4]; 0.5 mM NOP-1 vs 1 mM silver salt (AgNO3), entire trial period", "value": "noticeably more efficient in extending the vase life of cut carnations than the peptide biological"},
      {"measurement": "signs of petal senescence after 15 days, cut carnations", "setting": "[4]; 1 mM silver salt (AgNO3) in vase water, 50 mM Tris/Acetic acid pH 8, 15 days, six flowers", "value": "almost no signs of senescence after 15 days"},
      {"measurement": "delay of petal senescence in cut carnations (in words)", "setting": "[4]; 1 mM silver salt (AgNO3) in vase water, 50 mM Tris/Acetic acid pH 8, six flowers, vs buffer controls senescent after 6 days", "value": "delays the appearance of these morphological manifestations by several days"},
      {"measurement": "prolongation of vase life relative to buffer controls, cut roses", "setting": "[5]", "value": "6 to 8", "unit": "days"}
    ]},
    {"molecule": "NOCC(=O)O", "note": "[AOA, amino-oxyacetic acid]", "values": [
      {"measurement": "blocking of ethylene production that accompanies senescence", "setting": "[3]", "value": "effective in blocking ethylene production"},
      {"measurement": "prevention of the effects of exogenous ethylene on flower senescence", "setting": "[1]; [8]", "value": "ineffective"}
    ]},
    {"molecule": "B1", "values": [
      {"measurement": "interaction with chemically denatured DcETR1 (negative control)", "setting": "[6]", "value": "no interaction"},
      {"measurement": "Kd", "setting": "[7]", "value": 136, "unit": "nM"}
    ]}
  ]
}
